Source: the METLIN SMRT retention time set (Domingo-Almenara et al. 2019)

Assay: gradient 5% acetonitrile 3 min, to 50% in 2 min, to 85% in 15 min, held 3 min, 100 µL/min
Settings: column: Zorbax Extend-C18 2.1 x 50 mm; eluents: water / acetonitrile, 0.1% formic acid
Outline: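 Retention time was recorded from adduct peaks, which were picked computationally and each inspected manually. Pure standards ran in mixtures of ~100 molecules on HPLC coupled to a quadrupole time-of-flight mass spectrometer, in positive and negative ionization mode, through a Zorbax Extend-C18 column (2.1 × 50 mm, 1.8 μm) at 100 μL/min. Eluents were water and acetonitrile, each with 0.1% formic acid.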

Going from `Cc1cc(Cl)ccc1NC(=O)c1cnc(-c2ccccc2)nc1-c1ccncc1` to `O=C(O)c1cccc(Nc2c(-c3ccccc3)nc3cnccn23)c1`, the RP-LC retention time falls from 956 s to 697 s.

First: Fc1ccc(OCc2nn3c(-c4cccnc4)nnc3s2)cc1
Second: CCCN1CC(Oc2ccc(-c3noc(-c4cccnc4)n3)cc2)C1
The RP-LC retention time of the first is higher: 781 s for the first, 621 s for the second.

First: CCCNC(=O)CCNc1c(-c2ccc(C)cc2)nc2cnccn12
Second: Cc1cccc(Nc2c(-c3ccc(Br)cc3)nc3cnccn23)c1C
The RP-LC retention time of the first is lower: 654 s for the first, 1140 s for the second.

First: Cc1cc2c(cc1S(=O)(=O)N1CCCCC1)N(C(=O)C1CC1)CC2
Second: O=C(C1CCN(S(=O)(=O)Cc2ccc(F)cc2)CC1)N1CCCC1
The RP-LC retention time of the first is higher: 980 s for the first, 735 s for the second.

Going from `Cc1cc(Cl)ccc1NC(=O)c1cccn1Cc1noc(C2CC2)n1` to `CCc1cc(C(=O)Nc2ccc(F)c(F)c2)no1`, the RP-LC retention time falls from 1020 s to 952 s.

First: Cc1cc(=O)n2c3c(c4c(cc13)c(CN(C)C)cc(=O)n4C)OC2
Second: Cc1cccc(C)c1NC(=O)Cn1nc2nc(N3CCCC(C)C3)ccn2c1=O (stereo not given)
The RP-LC retention time of the first is lower: 601 s for the first, 787 s for the second.

First: CC(C)(C)NC(=O)NC1CCN(c2ccccc2)C1=O (stereo not given)
Second: CCc1ccccc1NC(=O)N1CCCC1c1cc(C)no1 (stereo not given)
The RP-LC retention time of the first is lower: 722 s for the first, 845 s for the second.

Compared with `Cc1cccc(N2CCN(S(=O)(=O)c3ccc(-c4c(C)noc4C)cc3)CC2)c1C`, `COc1ccccc1-c1nc(-c2ccc(S(=O)(=O)N3CCC(C(=O)N4CCCC4)CC3)cc2)no1` is lower in RP-LC retention time: 1230 s for the first, 952 s for the second.

Compared with `COC(=O)c1ncn2c1C(=O)N(c1ccc(C)cc1C)C(C)(C(=O)NCc1ccccc1)C2` (stereo not given), `Cc1ccc(S(=O)(=O)N2CCC(CCNC(=O)NCCc3ccccc3)CC2)cc1` is higher in RP-LC retention time: 726 s for the first, 924 s for the second.

First: O=C(Nc1ccccc1)C1CCc2sc(C(=O)N3CCOCC3)cc2C1 (stereo not given)
Second: CCCc1nnsc1C(=O)NCC1CCN(C(=O)Oc2ccccc2)CC1
The RP-LC retention time of the first is lower: 708 s for the first, 863 s for the second.

First: O=C1NC(=O)/C(=C/c2ccc(-c3ccc(F)cc3O)o2)S1
Second: COc1ccccc1NC(=O)N1CCC2(CC1)NC(=O)c1ccc(F)cc1N2C
The RP-LC retention time of the first is higher: 923 s for the first, 745 s for the second.

Compared with `Cc1ccn2cc(-c3ccc(C)c(NS(=O)(=O)c4ccccc4)c3)nc2c1`, `CN(Cc1ccccc1)C(=O)c1cc2cccnc2n(Cc2ccccc2)c1=O` is higher in RP-LC retention time: 655 s for the first, 950 s for the second.

Going from `COCCNC(=O)C1Cn2cccc2C(=O)N1CC(C)C` (stereo not given) to `CCNc1cc(N2CCCC(CCC(=O)NCCOC)C2)ncn1` (stereo not given), the RP-LC retention time falls from 624 s to 580 s.

Going from `Cc1ccc(-n2nc(C)c3sc(N4CCCC(C(=O)NC(C)CCc5ccccc5)C4)nc32)cc1` (stereo not given) to `CCC(=O)NCc1csc(C2CCCN(C(=O)COc3ccccc3)C2)n1` (stereo not given), the RP-LC retention time falls from 1300 s to 710 s.

First: COc1ccc(OC)c(S(=O)(=O)N2CCc3nc(-c4ccc(F)cc4)ncc3C2)c1
Second: O=C(Cn1ccn2nc(-c3ccc(F)cc3)c(CO)c2c1=O)Nc1ccc(Cl)cc1F
The RP-LC retention time of the first is higher: 1050 s for the first, 909 s for the second.

Compared with `CCOC(=O)c1noc2ncnc(N3CCN(c4ccccc4OC)CC3)c12`, `Cc1nn(-c2ccc(N3CCOCC3)nn2)c(C)c1CCC(=O)NCCCc1ccco1` is lower in RP-LC retention time: 970 s for the first, 692 s for the second.

Compared with `Cc1ccccc1S(=O)(=O)N1CCC(OCCOCc2ccccc2)CC1`, `N#Cc1ccsc1NC(=O)c1ccc(S(=O)(=O)N2CCOCC2)cc1` is lower in RP-LC retention time: 1130 s for the first, 749 s for the second.

First: O=C(NCC1CCN(c2ncccn2)CC1)C(=O)Nc1ccon1
Second: NC(=O)C1CCN(Cc2nc(-c3ccc(N4CCSCC4)nc3)no2)CC1
The RP-LC retention time of the first is higher: 614 s for the first, 597 s for the second.

First: CCCn1cc(C(=O)N2CCOCC2)c2cccnc21
Second: CC1CCN(C(=O)c2ccc(Cn3cncn3)cc2)CC1
The RP-LC retention time of the first is lower: 640 s for the first, 672 s for the second.

Compared with `CCCN(C(=O)c1cccc(F)c1)c1nc(-c2ccccc2)cs1`, `COc1ccccc1NC(=O)NCCCn1c(C(F)(F)F)nc2cccnc21` is lower in RP-LC retention time: 1310 s for the first, 797 s for the second.

First: CN1C(=O)CCc2cc(NS(=O)(=O)c3ccc(Br)s3)ccc21
Second: O=C(Cn1cnc2nc3c(cc2c1=O)CCCC3)Nc1cccc(C(F)(F)F)c1
The RP-LC retention time of the first is lower: 801 s for the first, 823 s for the second.

Compared with `O=C1NCCC1Cc1ccc(C(F)(F)F)cc1` (stereo not given), `Cc1ccc2[nH]cc(CCNC(=O)C3CCN(c4ccc(N5CCCCC5)nn4)CC3)c2c1` is lower in RP-LC retention time: 710 s for the first, 685 s for the second.

With `Cc1ccc2c(c1)N(C(=O)CCC(=O)NCCCN1CC(C)CC(C)C1)CC(C)O2` (stereo not given) the RP-LC retention time was 704 s.
